For this test, the target named is Pol Theta (1-894) (Homo sapiens (Human), UniProt O75417). Kind of test: Biochemical Pol Theta (1-894) ATPase IC50 assay (ADP-Glo, ssDNA substrate). The conditions noted are these: ADP-Glo assay with ssDNA substrate, room temperature. In outline:
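His-tagged human Pol Theta 1-894 from Sf9 baculovirus cells, 2× enzyme solution at 12.5 nM, assayed with ssDNA substrate at room temperature in 40 mM Tris pH 7.5, 20 mM MgCl2, 1 mM DTT, 0.01% BSA, 0.05% Tween-20.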
(In ADP-Glo the light output rises with the ADP produced.)
Pol Theta (1-894), sequence (O75417 1-894): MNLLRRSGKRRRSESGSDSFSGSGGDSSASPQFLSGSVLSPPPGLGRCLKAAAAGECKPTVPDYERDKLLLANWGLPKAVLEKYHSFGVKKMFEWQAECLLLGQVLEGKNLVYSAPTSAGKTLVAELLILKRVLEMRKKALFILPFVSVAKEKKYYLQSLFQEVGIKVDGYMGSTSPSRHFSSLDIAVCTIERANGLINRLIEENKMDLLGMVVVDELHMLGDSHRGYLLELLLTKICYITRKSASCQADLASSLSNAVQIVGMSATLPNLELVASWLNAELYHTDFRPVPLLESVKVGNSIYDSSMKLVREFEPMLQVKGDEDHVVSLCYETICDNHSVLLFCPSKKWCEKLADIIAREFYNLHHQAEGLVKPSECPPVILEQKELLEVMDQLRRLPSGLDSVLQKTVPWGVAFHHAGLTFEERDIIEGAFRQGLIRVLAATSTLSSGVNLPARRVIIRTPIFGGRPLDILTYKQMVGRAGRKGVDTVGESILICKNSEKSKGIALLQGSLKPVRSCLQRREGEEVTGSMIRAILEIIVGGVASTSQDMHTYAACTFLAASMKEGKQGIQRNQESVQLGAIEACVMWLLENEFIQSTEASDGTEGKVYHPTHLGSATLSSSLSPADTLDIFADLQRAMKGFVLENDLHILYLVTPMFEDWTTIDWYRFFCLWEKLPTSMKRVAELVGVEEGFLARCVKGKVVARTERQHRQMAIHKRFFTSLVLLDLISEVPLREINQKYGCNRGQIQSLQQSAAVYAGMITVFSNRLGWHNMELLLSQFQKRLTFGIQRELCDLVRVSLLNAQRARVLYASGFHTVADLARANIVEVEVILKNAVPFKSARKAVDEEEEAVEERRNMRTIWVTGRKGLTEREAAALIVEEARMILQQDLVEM
Consider `Cc1cc(-c2cc(S(C)(=O)=O)ccc2C2CC2)c(C(=O)Nc2nc3ccc(-c4ccc(C#N)cc4)nc3s2)cn1` [Example 157, N-(5-(4-cyanophenyl)thiazolo[5,4-b]pyridin-2-yl)-4-(2-cyclopropyl-5-(methylsulfonyl)phenyl)-6-methylnicotinamide], for which the IC50 (in general, the midpoint of a concentration-inhibition curve) is 0.07 µM. This lies in the double-digit nanomolar range.

Consider `COc1ccccc1-c1cnncc1C(=O)Nc1nc2ccc(-c3ccc(C#N)cn3)nc2s1` [Example 158, N-(5-(5-cyanopyridin-2-yl)thiazolo[5,4-b]pyridin-2-yl)-5-(2-methoxyphenyl)pyridazine-4-carboxamide], for which the IC50 came out at 0.0082 µM. This IC50 lies about 8.5-fold lower than the previous one.

With `COc1ccc(C#N)cc1-c1cc(C)ncc1C(=O)Nc1nc2ccc(-c3ccc(C#N)cn3)nc2s1` [Example 159, 4-(5-cyano-2-methoxyphenyl)-N-(5-(5-cyanopyridin-2-yl)thiazolo[5,4-b]pyridin-2-yl)-6-methylnicotinamide], the IC50 worked out at 0.005 µM.

Regarding `COc1ccccc1-c1cnncc1C(=O)Nc1nc2ccc(Oc3ccc(S(C)(=O)=O)cc3)nc2s1` [Example 160, 5-(2-methoxyphenyl)-N-(5-(4-(methylsulfonyl)phenoxy)thiazolo[5,4-b]pyridin-2-yl)pyridazine-4-carboxamide], the IC50 worked out at 0.063 µM.

As to `COc1cc(-c2ccc3nc(NC(=O)c4cnc(C)cc4-c4cc(C#N)ccc4OC)sc3n2)ccc1C#N` [Example 161, 4-(5-cyano-2-methoxyphenyl)-N-(5-(4-cyano-3-methoxyphenyl)thiazolo[5,4-b]pyridin-2-yl)-6-methylnicotinamide], the IC50 turned out to be 0.036 µM.

Regarding `COc1ccccc1-c1cnncc1C(=O)Nc1nc2ccc(CCc3ccc(Cl)cn3)nc2s1` [Example 162, N-(5-(2-(5-chloropyridin-2-yl)ethyl)thiazolo[5,4-b]pyridin-2-yl)-5-(2-methoxyphenyl)pyridazine-4-carboxamide], the IC50 stood at 0.029 µM. The IC50 values of the last two compounds are within 1.5-fold of each other.

`COc1ccc(C#N)cc1-c1cc(C)ncc1C(=O)Nc1nc2ccc(-c3ccc(N4C(=O)COC4=O)c(C)c3)nc2s1` [Example 163, 4-(5-cyano-2-methoxyphenyl)-N-(5-(4-(2,4-dioxooxazolidin-3-yl)-3-methylphenyl)thiazolo[5,4-b]pyridin-2-yl)-6-methylnicotinamide] returned an IC50 of 0.028 µM. The IC50 values of the last two compounds are within 1.5-fold of each other.

For `COc1ccc(C#N)cc1-c1cc(C)ncc1C(=O)Nc1nc2ccc(-c3ccc(N4CCCC4=O)nc3)nc2s1` [Example 164, 4-(5-cyano-2-methoxyphenyl)-6-methyl-N-(5-(6-(2-oxopyrrolidin-1-yl)pyridin-3-yl)thiazolo[5,4-b]pyridin-2-yl)nicotinamide], 0.037 µM corresponded to half-maximal inhibition (IC50).

`COc1ccccc1-c1cnncc1C(=O)Nc1nc2ccc(-c3ccc(NC(C)=O)c(C)c3)nc2s1` [Example 165, N-(5-(4-acetamido-3-methylphenyl)thiazolo[5,4-b]pyridin-2-yl)-5-(2-methoxyphenyl)pyridazine-4-carboxamide] gave an IC50 of 0.0089 µM.

In the case of `COc1ccc(C#N)cc1-c1cc(C)ncc1C(=O)Nc1nc2ccc(-c3ccc(C#N)c(C)c3)nc2s1` [Example 166, 4-(5-cyano-2-methoxyphenyl)-N-(5-(4-cyano-3-methylphenyl)thiazolo[5,4-b]pyridin-2-yl)-6-methylnicotinamide], the midpoint of inhibition, the IC50, lay at 0.013 µM.

For `Cc1cc(-c2cc(C#N)ccc2C2CC2)c(C(=O)Nc2nc3ccc(-c4ccc(C#N)cc4)nc3s2)cn1` [Example 167, 4-(5-cyano-2-cyclopropylphenyl)-N-(5-(4-cyanophenyl)thiazolo[5,4-b]pyridin-2-yl)-6-methylnicotinamide], the IC50 was 0.015 µM.

Compound `COc1ccc(C#N)cc1-c1cc(C)ncc1C(=O)Nc1nc2ccc(-c3ccc(CC#N)cn3)nc2s1` [Example 168, 4-(5-cyano-2-methoxyphenyl)-N-(5-(5-(cyanomethyl)pyridin-2-yl)thiazolo[5,4-b]pyridin-2-yl)-6-methylnicotinamide] returned an IC50 of 0.0044 µM.

On to `COc1ccc(C#N)cc1-c1cc(C)ncc1C(=O)Nc1nc2ccc(-c3ccc(C#N)cc3C)nc2s1` [Example 169, 4-(5-cyano-2-methoxyphenyl)-N-(5-(4-cyano-2-methylphenyl)thiazolo[5,4-b]pyridin-2-yl)-6-methylnicotinamide], for which 0.0075 µM corresponded to half-maximal inhibition (IC50).

Consider `COc1ccc(C#N)cc1-c1cc(C)ncc1C(=O)Nc1nc2ccc(-c3ccc(OC4CNC4)cc3)nc2s1` [Example 170, N-(5-(4-(azetidin-3-yloxy)phenyl)thiazolo[5,4-b]pyridin-2-yl)-4-(5-cyano-2-methoxyphenyl)-6-methylnicotinamide], for which the IC50 was 0.026 µM.

`COc1ccc(C#N)cc1-c1cc(C)ncc1C(=O)Nc1nc2ccc(-c3ccc(CC#N)c(C)c3)nc2s1` [Example 171, 4-(5-cyano-2-methoxyphenyl)-N-(5-(4-(cyanomethyl)-3-methylphenyl)thiazolo[5,4-b]pyridin-2-yl)-6-methylnicotinamide] displayed an IC50 of 0.013 µM.

For the compound `COc1ccc(C#N)cc1-c1cc(C)ncc1C(=O)Nc1nc2ccc(-c3ccc(CC#N)cc3C)nc2s1` [Example 172, 4-(5-cyano-2-methoxyphenyl)-N-(5-(4-(cyanomethyl)-2-methylphenyl)thiazolo[5,4-b]pyridin-2-yl)-6-methylnicotinamide], the IC50 came to 0.01 µM. The IC50 values of the last two compounds are within 1.5-fold of each other.

The compound `Cc1cc(-c2cc(C#N)c(=O)n(C)c2C)c(C(=O)Nc2nc3ccc(-c4ccc(C#N)cc4)nc3s2)cn1` [Example 173, 5-cyano-N-(5-(4-cyanophenyl)thiazolo[5,4-b]pyridin-2-yl)-1,2,6′-trimethyl-6-oxo-1,6-dihydro-[3,4′-bipyridine]-3′-carboxamide] came in with an IC50 of 0.026 µM.

Take `COc1ccc(C#N)cc1-c1cc(C)ncc1C(=O)Nc1nc2ccc(-c3ccc(CN4CCCC4=O)cc3C)nc2s1` [Example 174, 4-(5-cyano-2-methoxyphenyl)-6-methyl-N-(5-(2-methyl-4-((2-oxopyrrolidin-1-yl)methyl)phenyl)thiazolo[5,4-b]pyridin-2-yl)nicotinamide]: the IC50 is 0.011 µM.

As for `COc1ccc(S(C)(=O)=O)cc1-c1cc(C)ncc1C(=O)Nc1nc2ccc(-c3ccc(C(N)=O)c(C)c3)nc2s1` [Example 175, N-(5-(4-carbamoyl-3-methylphenyl)thiazolo[5,4-b]pyridin-2-yl)-4-(2-methoxy-5-(methylsulfonyl)phenyl)-6-methylnicotinamide], 0.0084 µM corresponded to half-maximal inhibition (IC50).

`COc1ccc(C#N)cc1-c1cc(CO)ncc1C(=O)Nc1nc2ccc(-c3ccc(C#N)cc3C)nc2s1` [Example 176, 4-(5-cyano-2-methoxyphenyl)-N-(5-(4-cyano-2-methylphenyl)thiazolo[5,4-b]pyridin-2-yl)-6-(hydroxymethyl)nicotinamide] gave an IC50 of 0.0091 µM.

`COc1ccc(C#N)cc1-c1cc(C)ncc1C(=O)Nc1nc2ccc(-c3ccc([C@@H](C)C#N)cc3)nc2s1` [Example 177A, (R)-4-(5-cyano-2-methoxyphenyl)-N-(5-(4-(1-cyanoethyl)phenyl)thiazolo[5,4-b]pyridin-2-yl)-6-methylnicotinamide] had an IC50 of 0.025 µM.

In the case of `COc1ccc(C#N)cc1-c1cc(C)ncc1C(=O)Nc1nc2ccc(-c3ccc([C@H](C)C#N)cc3)nc2s1` [Example 177B, (S)-4-(5-cyano-2-methoxyphenyl)-N-(5-(4-(1-cyanoethyl)phenyl)thiazolo[5,4-b]pyridin-2-yl)-6-methylnicotinamide], half-maximal inhibition (IC50) required 0.013 µM.
